Tests used:
Stability = format: physicochemical
HL60 (leukemia) = experiment: MTT cell viability assay, HL-60; format: cell-based; details: Homo sapiens, HL-60 (leukemia), 48 h treatment
Experimental: (§1) Anticancer activity of dysoline (1) along with rohitukine was evaluated using MTT cell viability assay on […] cancer cell lines viz. Colo205 (colon), HCT116 (colon), HT1080 (fibrosarcoma), NCIH322 (lung), A549 (lung), Molt-4 (leukemia) and HL60 (leukemia).
(§2) The cell were originated from The European Collection of Cell Cultures (ECACC, UK) and purchased through Sigma-Aldrich India.
(§3) The MTT assay was used to assess the effect of the test molecules on cell viability. Cell viability on eight cell lines viz. Colo205 (colon), HCT116 (colon), HT1080 (fibrosarcoma), NCIH322 (lung), A549 (lung), Molt-4 (leukemia) and HL60 (leukemia) was investigated. In each well of a 96-well plate, 3×10^3 cells were grown in 100 μL of medium. After 24 h, each test molecules were added to achieve a final concentration of 10 to 0.01 μmol/L, respectively. After 48 h of treatment, 20 μL of 2.5 mg/mL MTT (Organics Research, Inc.) solution in phosphate buffer saline was added to each well. After […], supernatant was removed and formazan crystals were dissolved in 200 μL of DMSO. Absorbance was then measured at 570 nm using an absorbance plate reader (Bio-Rad Microplate Reader). Data are expressed as the percentage of viable cells in treated relative to non-treated conditions. Each experiment was repeated thrice and data was expressed as mean±SD of three independent experiments (Mol. Cancer Ther. 2010, 9, 358-368).

TNF-α = experiment: Inhibition of TNF-α production in splenocytes (ELISA); format: cell-based, male Balb/c mice; details: 72 h, Con A or LPS; for inhibition at 0.01 µM / inhibition at 0.1 µM / inhibition at 1 µM / inhibition at 10 µM / inhibition at 100 µM: Mus musculus, Splenocyte, read-out: Percentage inhibition of cytokine production, TNF-α
Experimental: (§4) Anti-inflammatory activity of dysoline (1) was evaluated by inhibiting production of pro-inflammatory cytokines such as tumor necrosis factor-alpha (TNF-α) and interleukin-6 (IL-6). […] The TNF-α inhibition activity of dysoline was compared with rohitukine.
(§5) Splenocytes of male Balb/c mice were seeded into three to four wells of a 96-well flat-bottom microtiter plate (Nunc) at 2×10^6 cells/ml. Cells were incubated with different concentrations of dysoline (0.01 μM-100 μM) along with Con A (2.5 μg/well) or LPS (1 μg/ml) for 72 h at 37° C. with 5% CO2 in CO2 incubator. The culture supernatants were harvested and the measurement of cytokines (TNF-α and IL-6) in the culture supernatants was carried out using commercial kits as per manufacturer's instructions by using ELISA kits (R&D, USA) (Life Sci. 2007, 80, 1525-1538; J. Immunol. Methods 1983, 65, 55-63).

Water solubility = format: physicochemical
Colo205 (colon) = experiment: MTT cell viability assay, Colo205; format: cell-based; details: Homo sapiens, COLO 205, 48 h treatment
Experimental: as §1, §2, §3

A549 (lung) = experiment: MTT cell viability assay, A549; format: cell-based; details: Homo sapiens, 48 h treatment
Experimental: as §1, §2, §3

NCIH322 (lung) = experiment: MTT cell viability assay, NCIH322; format: cell-based; details: NCI-H322, 48 h treatment
Experimental: as §1, §2, §3

HT1080 (fibrosarcoma) = experiment: MTT cell viability assay, HT1080; format: cell-based; details: 48 h treatment
Experimental: as §1, §2, §3

IL-6 = experiment: Inhibition of IL-6 production in splenocytes (ELISA); format: cell-based, male Balb/c mice; details: Splenocyte, mouse splenocytes, Con A or LPS, 72 h, read-out: Percentage inhibition of cytokine production, IL-6
Experimental: as §4, §5

Molt-4 (leukemia) = experiment: MTT cell viability assay, MOLT-4; format: cell-based; details: Homo sapiens, 48 h treatment
Experimental: as §1, §2, §3

HCT116 (colon) = experiment: MTT cell viability assay, HCT116; format: cell-based; details: Homo sapiens, HCT-116, 48 h treatment
Experimental: as §1, §2, §3

[1] = tested on: HL-60 promyelocytic leukemia; details: human HL-60 promyelocytic leukemia; cited from earlier work
[2] = tested on: HCT-116 colon cancer cells; details: cited from earlier work

Row | IC50 (HL60 (leukemia)) [µM] | IC50 (Colo205 (colon)) [µM] | IC50 (A549 (lung)) [µM] | IC50 (HT1080 (fibrosarcoma); Homo sapiens, HT-1080, 48 h) [µM] | IC50 (Molt-4 (leukemia)) [µM] | IC50 (HCT116 (colon)) [µM] | SMILES | inhibition at 0.01 µM (TNF-α) [%] | inhibition at 0.1 µM (TNF-α) [%] | inhibition at 1 µM (TNF-α; 1 μM) [%] | inhibition at 10 µM (TNF-α) [%] | inhibition at 100 µM (TNF-α) [%] | IC50 (NCIH322 (lung)) [µM] | inhibition at 0.01 µM (IL-6) [%] | inhibition at 0.1 µM (IL-6) [%] | inhibition at 1 µM (IL-6) [%] | inhibition at 10 µM (IL-6) [%] | inhibition at 100 µM (IL-6) [%] | other results
1 | 10 | > 10 | > 10 | 0.21 | > 10 | > 10 | Cc1cc(=O)c2c(O)c(C3CCN(C)CC3O)c(O)cc2o1 (centres unmarked) [Dysoline (1), 5,7-dihydroxy-6-(3-hydroxy-1-methylpiperidin-4-yl)-2-methyl-4H-chromen-4-one] | 28 | 47 | 53 | 54 | 56 | > 10 | 72 | 83 | 83 | 89 | 99 | stability (Stability): stable; water solubility (Water solubility): good water solubility; melting point: 310 to 315 °C
2 | 10 | > 10 | > 10 | < 10 | > 10 | > 10 | Cc1cc(=O)c2c(O)cc(O)c([C@H]3CCN(C)C[C@H]3O)c2o1 [Rohitukine, 5,7-dihydroxy-2-methyl-8-[4-(3-hydroxy-1-methyl)-piperidinyl]-4H-1-benzopyran-4-one] | 18 | 22 | 32 | 32 | 47 | > 10 | 10 | 30 | 80 | 88 | 89 | cytotoxicity [1]: moderate cytotoxicity; cytotoxicity [2]: moderate cytotoxicity; Percentage inhibition of cytokine production, TNF-α (TNF-α; 1 μM, mouse splenocytes): 28%; IC50 (HT1080 (fibrosarcoma)): > 10 µM

— patent publication US9776989B2, “Chromone alkaloid dysoline for the treatment of cancer and inflammatory disorders” (Council of Scientific & Industrial Research, priority 2013, dated 2017)
